Measurements taken from ChEMBL document CHEMBL1127102, “Structure-activity relationships of 2,3-benzodiazepine compounds with glutamate antagonistic action” (Bioorg Med Chem Lett, 1993).

What was measured:
Rattus norvegicus [1] = species on record: Rattus norvegicus; assay: Tested in vitro for the relative potency against neuronal responses mediated by the non-NMDA type glutamate receptor compared to GYKI 52466; format: functional
Mus musculus [2] = assay: Tested in vivo for the oral anticonvulsant activity by MES test; format: functional
Mus musculus [3] = species on record: Mus musculus; assay: Tested in vitro for the oral anticonvulsant activity by MES test; format: functional, organism-based
Mus musculus [4] = assay: Tested in vivo for anticonvulsant activity using MES, MMS and IS relative potency compared to GYKI 52466; format: functional
Mus musculus [5] = assay: Tested in vivo for the anticonvulsant activity by MMS test. 95% confidence limits are in brackets; format: functional
Mus musculus [6] = assay: Tested in vivo for the anticonvulsant activity by MES test. 95% confidence limits are in brackets; format: functional
Mus musculus [7] = assay: Tested in vivo for the anticonvulsant activity by IS test.; format: functional
Rattus norvegicus [8] = species on record: Rattus norvegicus; assay: Tested in vitro for the anticonvulsant activity (IC50 value was determined after 30 min perfusion application by MES test); format: functional, organism-based; settings: 0.5 h

Compound	Relative potency (Rattus norvegicus [1])	Relative potency (Mus musculus [4])	further results
CNC(=O)N1N=C(c2ccc(N)cc2)c2cc3c(cc2CC1C)OCO3 (centres undefined) [GYKI-53655]	2.46	4.39	ED50 (Mus musculus [2]): 8.4 mg/kg; IC50 (Mus musculus [3]): 12 µM
CC1Cc2cc3c(cc2C(c2ccc(N)cc2)=NN1C=O)OCO3 (centres undefined)	0.44	1.72	–
CCCCC(=O)N1N=C(c2ccc(N)cc2)c2cc3c(cc2CC1C)OCO3 (centres undefined)	0.22	0	–
CC1Cc2cc3c(cc2C(c2ccc(N)cc2)=NN1C(=O)c1ccccc1)OCO3 (centres undefined)	–	0	–
CC(=O)N1N=C(c2ccc(N)cc2)c2cc3c(cc2C[C@H]1C)OCO3 [TALAMPANEL]	1.12	2.74	–
CC(N)C(=O)N1N=C(c2ccc(N)cc2)c2cc3c(cc2CC1C)OCO3 (centres undefined)	0	0.08	–
CC1Cc2cc3c(cc2C(c2ccc(N)cc2)=NN1C(=O)Nc1ccccc1)OCO3 (centres undefined)	–	0.13	–
CC1Cc2cc3c(cc2C(c2ccc(N)cc2)=NN1C(=O)CN)OCO3 (centres undefined)	0.1	0	–
CNCC(=O)N1N=C(c2ccc(N)cc2)c2cc3c(cc2CC1C)OCO3 (centres undefined)	0.02	0	–
CC1Cc2cc3c(cc2C(c2ccc(N)cc2)=NN1C(=O)Cc1ccccc1)OCO3 (centres undefined)	–	0	–
CC1=NN=C(c2ccc(N)cc2)c2cc3c(cc2C1)OCO3 [GYKI-52466]	–	–	ED50 (Mus musculus [5]): 107 mg/kg; ED50 (Mus musculus [6]): 30.6 mg/kg; ED50 (Mus musculus [7]): 45.1 mg/kg; IC50 (Rattus norvegicus [8]): 29.5 µM
CC1Cc2cc3c(cc2C(c2ccc(N)cc2)=NN1C(=O)CN(C)C)OCO3 (centres undefined)	–	0	–
CCCCNC(=O)N1N=C(c2ccc(N)cc2)c2cc3c(cc2CC1C)OCO3 (centres undefined)	0.65	0.35	–
CC1Cc2cc3c(cc2C(c2ccc(N)cc2)=NN1C(=O)CC#N)OCO3 (centres undefined)	–	0.21	–
CC1Cc2cc3c(cc2C(c2ccc(N)cc2)=NN1C(=O)C(F)(F)F)OCO3 (centres undefined)	–	0	–
CC1Cc2cc3c(cc2C(c2ccc(N)cc2)=NN1C(=O)C1CC1)OCO3 (centres undefined)	1.48	1.66	–
CC1Cc2cc3c(cc2C(c2ccc(N)cc2)=NN1C(=O)C(C)(C)C)OCO3 (centres undefined)	–	0	–
CCC(=O)N1N=C(c2ccc(N)cc2)c2cc3c(cc2CC1C)OCO3 (centres undefined)	1.55	2.55	–
COCC(=O)N1N=C(c2ccc(N)cc2)c2cc3c(cc2CC1C)OCO3 (centres undefined)	–	1.02	–
